{"source": "the supplement of paper PMC10307832", "assay_in_all_cases": "relative viability (nuclei count vs DMSO), 5 days (fraction); higher = more cells survive", "key": {"Everolimus + Decitabine": {"compound": "CO[C@H]1C[C@@H]2CC[C@@H](C)[C@@](O)(O2)C(=O)C(=O)N2CCCC[C@H]2C(=O)O[C@H]([C@H](C)C[C@@H]2CC[C@@H](OCCO)[C@H](OC)C2)CC(=O)[C@H](C)/C=C(\\C)[C@@H](O)[C@@H](OC)C(=O)[C@H](C)C[C@H](C)/C=C/C=C/C=C/1C [Everolimus] + Nc1ncn([C@H]2C[C@H](O)[C@@H](CO)O2)c(=O)n1 [Decitabine] (partner 2 µM)", "method_in_brief": "(§1)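 A single step with final 0.05% Triton X-100, 1% formaldehyde and 1 ug/ml Hoechst fixed the cells and stained nuclei 5 days after treatment. Lung cancer cell lines in 1536-well plates had been treated by pin tool the day after seeding with one drug alone or a fixed anchor-drug dose plus five library-drug doses (not always all listed) in √10 steps, and nuclei were counted on 4× images. Relative viability is the ratio of nuclei in treated wells to nuclei in vehicle wells, taken as the median of duplicate plates.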"}, "Everolimus + Olaparib": {"compound": "CO[C@H]1C[C@@H]2CC[C@@H](C)[C@@](O)(O2)C(=O)C(=O)N2CCCC[C@H]2C(=O)O[C@H]([C@H](C)C[C@@H]2CC[C@@H](OCCO)[C@H](OC)C2)CC(=O)[C@H](C)/C=C(\\C)[C@@H](O)[C@@H](OC)C(=O)[C@H](C)C[C@H](C)/C=C/C=C/C=C/1C [Everolimus] + O=C(c1cc(Cc2n[nH]c(=O)c3ccccc23)ccc1F)N1CCN(C(=O)C2CC2)CC1 [Olaparib] (partner 8 µM)", "method_in_brief": "as §1"}, "Everolimus + AZD7762": {"compound": "CO[C@H]1C[C@@H]2CC[C@@H](C)[C@@](O)(O2)C(=O)C(=O)N2CCCC[C@H]2C(=O)O[C@H]([C@H](C)C[C@@H]2CC[C@@H](OCCO)[C@H](OC)C2)CC(=O)[C@H](C)/C=C(\\C)[C@@H](O)[C@@H](OC)C(=O)[C@H](C)C[C@H](C)/C=C/C=C/C=C/1C [Everolimus] + NC(=O)Nc1cc(-c2cccc(F)c2)sc1C(=O)N[C@H]1CCCNC1 [AZD7762] (partner 0.2 µM)", "method_in_brief": "as §1"}, "Everolimus + Lapatinib": {"compound": "CO[C@H]1C[C@@H]2CC[C@@H](C)[C@@](O)(O2)C(=O)C(=O)N2CCCC[C@H]2C(=O)O[C@H]([C@H](C)C[C@@H]2CC[C@@H](OCCO)[C@H](OC)C2)CC(=O)[C@H](C)/C=C(\\C)[C@@H](O)[C@@H](OC)C(=O)[C@H](C)C[C@H](C)/C=C/C=C/C=C/1C [Everolimus] + CS(=O)(=O)CCNCc1ccc(-c2ccc3ncnc(Nc4ccc(OCc5cccc(F)c5)c(Cl)c4)c3c2)o1 [Lapatinib] (partner 2 µM)", "method_in_brief": "as §1"}}}
{"cell line": "NCI-H522", "values": [{"measurement": "relative viability", "setting": "Everolimus + Decitabine; first compound 0.01 µM", "result": 0.594}, {"measurement": "relative viability", "setting": "Everolimus + Decitabine; first compound 0.03162 µM", "result": 0.677}, {"measurement": "relative viability", "setting": "Everolimus + Decitabine; first compound 0.1 µM", "result": 0.517}, {"measurement": "relative viability", "setting": "Everolimus + Decitabine; first compound 0.3162 µM", "result": 0.684}, {"measurement": "relative viability", "setting": "Everolimus + Decitabine; first compound 1 µM", "result": 0.537}, {"measurement": "relative viability", "setting": "Everolimus + Olaparib; first compound 0.01 µM", "result": 0.609}, {"measurement": "relative viability", "setting": "Everolimus + Olaparib; first compound 0.03162 µM", "result": 0.474}, {"measurement": "relative viability", "setting": "Everolimus + Olaparib; first compound 0.1 µM", "result": 0.429}, {"measurement": "relative viability", "setting": "Everolimus + Olaparib; first compound 0.3162 µM", "result": 0.448}, {"measurement": "relative viability", "setting": "Everolimus + Olaparib; first compound 1 µM", "result": 0.438}, {"measurement": "relative viability", "setting": "Everolimus + AZD7762; first compound 0.01 µM", "result": 0.622}, {"measurement": "relative viability", "setting": "Everolimus + AZD7762; first compound 0.03162 µM", "result": 0.64}, {"measurement": "relative viability", "setting": "Everolimus + AZD7762; first compound 0.1 µM", "result": 0.579}, {"measurement": "relative viability", "setting": "Everolimus + AZD7762; first compound 0.3162 µM", "result": 0.651}, {"measurement": "relative viability", "setting": "Everolimus + AZD7762; first compound 1 µM", "result": 0.686}]}
{"cell line": "NCI-H661", "values": [{"measurement": "relative viability", "setting": "Everolimus + Decitabine; first compound 0.01 µM", "result": 0.429}, {"measurement": "relative viability", "setting": "Everolimus + Decitabine; first compound 0.03162 µM", "result": 0.429}, {"measurement": "relative viability", "setting": "Everolimus + Decitabine; first compound 0.1 µM", "result": 0.428}, {"measurement": "relative viability", "setting": "Everolimus + Decitabine; first compound 0.3162 µM", "result": 0.435}, {"measurement": "relative viability", "setting": "Everolimus + Decitabine; first compound 1 µM", "result": 0.397}, {"measurement": "relative viability", "setting": "Everolimus + Lapatinib; first compound 0.01 µM", "result": 0.358}, {"measurement": "relative viability", "setting": "Everolimus + Lapatinib; first compound 0.03162 µM", "result": 0.428}, {"measurement": "relative viability", "setting": "Everolimus + Lapatinib; first compound 0.1 µM", "result": 0.341}, {"measurement": "relative viability", "setting": "Everolimus + Lapatinib; first compound 0.3162 µM", "result": 0.276}, {"measurement": "relative viability", "setting": "Everolimus + Lapatinib; first compound 1 µM", "result": 0.299}, {"measurement": "relative viability", "setting": "Everolimus + Olaparib; first compound 0.01 µM", "result": 0.672}, {"measurement": "relative viability", "setting": "Everolimus + Olaparib; first compound 0.03162 µM", "result": 0.64}, {"measurement": "relative viability", "setting": "Everolimus + Olaparib; first compound 0.1 µM", "result": 0.576}, {"measurement": "relative viability", "setting": "Everolimus + Olaparib; first compound 0.3162 µM", "result": 0.593}, {"measurement": "relative viability", "setting": "Everolimus + Olaparib; first compound 1 µM", "result": 0.491}]}
{"cell line": "NCI-H1299", "values": [{"measurement": "relative viability", "setting": "Everolimus + Lapatinib; first compound 0.01 µM", "result": 0.975}, {"measurement": "relative viability", "setting": "Everolimus + Lapatinib; first compound 0.03162 µM", "result": 1.06}, {"measurement": "relative viability", "setting": "Everolimus + Lapatinib; first compound 0.1 µM", "result": 0.974}, {"measurement": "relative viability", "setting": "Everolimus + Lapatinib; first compound 0.3162 µM", "result": 0.994}, {"measurement": "relative viability", "setting": "Everolimus + Lapatinib; first compound 1 µM", "result": 1}, {"measurement": "relative viability", "setting": "Everolimus + Olaparib; first compound 0.01 µM", "result": 0.953}, {"measurement": "relative viability", "setting": "Everolimus + Olaparib; first compound 0.03162 µM", "result": 0.987}, {"measurement": "relative viability", "setting": "Everolimus + Olaparib; first compound 0.1 µM", "result": 0.994}, {"measurement": "relative viability", "setting": "Everolimus + Olaparib; first compound 0.3162 µM", "result": 1.04}, {"measurement": "relative viability", "setting": "Everolimus + Olaparib; first compound 1 µM", "result": 0.841}]}
{"cell line": "NCI-H1563", "values": [{"measurement": "relative viability", "setting": "Everolimus + Lapatinib; first compound 0.01 µM", "result": 0.785}, {"measurement": "relative viability", "setting": "Everolimus + Lapatinib; first compound 0.03162 µM", "result": 0.839}, {"measurement": "relative viability", "setting": "Everolimus + Lapatinib; first compound 0.1 µM", "result": 0.758}, {"measurement": "relative viability", "setting": "Everolimus + Lapatinib; first compound 0.3162 µM", "result": 0.769}, {"measurement": "relative viability", "setting": "Everolimus + Lapatinib; first compound 1 µM", "result": 0.817}]}
{"cell line": "NCI-H1648", "values": [{"measurement": "relative viability", "setting": "Everolimus + Decitabine; first compound 0.01 µM", "result": 0.484}, {"measurement": "relative viability", "setting": "Everolimus + Decitabine; first compound 0.03162 µM", "result": 0.423}, {"measurement": "relative viability", "setting": "Everolimus + Decitabine; first compound 0.1 µM", "result": 0.383}, {"measurement": "relative viability", "setting": "Everolimus + Decitabine; first compound 0.3162 µM", "result": 0.405}, {"measurement": "relative viability", "setting": "Everolimus + Decitabine; first compound 1 µM", "result": 0.399}, {"measurement": "relative viability", "setting": "Everolimus + Olaparib; first compound 0.01 µM", "result": 0.577}, {"measurement": "relative viability", "setting": "Everolimus + Olaparib; first compound 0.03162 µM", "result": 0.473}, {"measurement": "relative viability", "setting": "Everolimus + Olaparib; first compound 0.1 µM", "result": 0.613}, {"measurement": "relative viability", "setting": "Everolimus + Olaparib; first compound 0.3162 µM", "result": 0.597}, {"measurement": "relative viability", "setting": "Everolimus + Olaparib; first compound 1 µM", "result": 0.482}, {"measurement": "relative viability", "setting": "Everolimus + AZD7762; first compound 0.01 µM", "result": 0.622}, {"measurement": "relative viability", "setting": "Everolimus + AZD7762; first compound 0.03162 µM", "result": 0.634}, {"measurement": "relative viability", "setting": "Everolimus + AZD7762; first compound 0.1 µM", "result": 0.631}, {"measurement": "relative viability", "setting": "Everolimus + AZD7762; first compound 0.3162 µM", "result": 0.735}, {"measurement": "relative viability", "setting": "Everolimus + AZD7762; first compound 1 µM", "result": 1.02}]}
{"cell line": "NCI-H1650", "values": [{"measurement": "relative viability", "setting": "Everolimus + Decitabine; first compound 0.01 µM", "result": 0.472}, {"measurement": "relative viability", "setting": "Everolimus + Decitabine; first compound 0.03162 µM", "result": 0.389}, {"measurement": "relative viability", "setting": "Everolimus + Decitabine; first compound 0.1 µM", "result": 0.556}, {"measurement": "relative viability", "setting": "Everolimus + Decitabine; first compound 0.3162 µM", "result": 0.406}, {"measurement": "relative viability", "setting": "Everolimus + Decitabine; first compound 1 µM", "result": 0.573}, {"measurement": "relative viability", "setting": "Everolimus + Lapatinib; first compound 0.01 µM", "result": 0.615}, {"measurement": "relative viability", "setting": "Everolimus + Lapatinib; first compound 0.03162 µM", "result": 0.707}, {"measurement": "relative viability", "setting": "Everolimus + Lapatinib; first compound 0.1 µM", "result": 0.645}, {"measurement": "relative viability", "setting": "Everolimus + Lapatinib; first compound 0.3162 µM", "result": 0.742}, {"measurement": "relative viability", "setting": "Everolimus + Lapatinib; first compound 1 µM", "result": 0.489}, {"measurement": "relative viability", "setting": "Everolimus + Olaparib; first compound 0.01 µM", "result": 0.893}, {"measurement": "relative viability", "setting": "Everolimus + Olaparib; first compound 0.03162 µM", "result": 0.934}, {"measurement": "relative viability", "setting": "Everolimus + Olaparib; first compound 0.1 µM", "result": 0.791}, {"measurement": "relative viability", "setting": "Everolimus + Olaparib; first compound 0.3162 µM", "result": 0.834}, {"measurement": "relative viability", "setting": "Everolimus + Olaparib; first compound 1 µM", "result": 0.849}]}
